Consider one compound from article PMC4502414, “Transforming berberine into its intestine-absorbable form by the gut microbiota” (Scientific Reports, 2015).

What is called Papp A→B is the apparent permeability from the apical to the basolateral side of a cell layer. Lower therefore signals slow passage. The AUC(0-t) is exposure summed from dosing to a finite time, without extrapolation to infinity. One may read the Cmax as the maximum level reached in the sampled fluid or tissue.

The test system of one series is Caco-2 cells. Nature of the series: Absorption of BBR and dhBBR in Caco-2 cells. The settings on record: Caco-2. Format: in vitro ADME. As for the experimental part:
(§1) A Caco-2 cell assay was conducted using a method reported previously. […] To determine the rate of drug transport in the apical-to-basolateral direction, 200 μl of the compound working solution was added to the filter well (apical compartment), and 800 μl of HBSS was added to the receiver plate (basolateral compartment). Accordingly, to determine the rate of drug transport in the basolateral-to-apical direction, 800 μl of the compound working solution was added to each well of the receiver plate and 200 μl of HBSS was added to the filter well. The plates were incubated for 30 min at 37 °C with shaking at 150 rpm on a rotary shaker. At the end of the transport period, aliquots of 50 μl were removed directly from the apical and basolateral wells and transferred to wells of new plates. Four volumes of cold methanol containing internal standards were added into each well. The samples were centrifuged at 16,000 g for 15 min. Aliquots of 200 μl of the supernatant were used for the LC-MS/MS analysis.

Series [1] in a line: Absorption of BBR and dhBBR in Caco-2 cells. It is filed as in vitro ADME. The settings on record: human. On the procedure:
as §1

The nature of series [2]: Plasma pharmacokinetics after oral dhBBR or BBR in rats. Format: in vivo, SD rats. The settings on record: oral dhBBR 200 mg/kg. On the procedure: The plasma (100 μl) was precipitated with 100 μl of acetonitrile after addition of 10 μl of the internal standard. BBR served as a control in the study. The plasma concentrations of BBR and dhBBR were determined using LC-MS/MS 8040 and LC-MS/MS 8050.

Series [3] is described as follows: Distribution of dhBBR in organs of SD rats orally treated with BBR. It is filed as in vivo. The note with it: 24 h after oral BBR 200 mg/kg. On the procedure: Three segments of small intestine (duodenum, jejunum and ileum) were collected 0, 6, 12, 24, 36, and 48 h after the oral administration of BBR in SD rats. The small intestine tissues were washed thoroughly with saline and dried. After being weighed, the samples were homogenized with mixed solution (ethanol: water, 1:1) at a ratio of 1:2 [w(g)/v(ml)]. The samples were centrifuged at 7,500 g for 10 min, and the supernatant was collected and evaporated to dryness in a water bath at 40 °C using a rotary evaporator. The residues of the tissue extraction were dissolved in methanol (250 μl) and vortex-mixed for 5 min. The tissue solution was then centrifuged (at 14,000 g for 5 min), and the supernatant was passed through a 0.22-μm filter. An aliquot of 1 μl of the supernatant was injected into the GC-MS instrument, and a 10-μl aliquot was used for LC-MS/MS analysis. The level of dhBBR was calculated based on the standard curve, and BBR and other metabolites was quantified using the method described above.

A further series deals with 17 intestinal bacteria. Put plainly: Anti-bacterial test (MIC, broth microdilution). Format: cell-based. The note with it: 17 intestinal bacteria strains, 24 h. On the procedure:
Seventeen bacterial strains (see above) were used in the susceptibility test for BBR and dhBBR. The bacterial strains, which belong to different species of bacteria, were collected and identified as described above. The minimum inhibitory concentrations (MICs) of BBR and dhBBR after 24 h were determined through the broth microdilution method according to the CLSI guidelines. BBR and dhBBR were tested at a concentration range of 8 to 512 μg/ml. The MIC was defined as the lowest concentration of an agent that prevents turbidity. The experiment was repeated three times. All of the bacterial strains tested in this study (S. aureus ATCC 29213, E. faecalis ATCC 29212, E. coli ATCC 25922, S. aureus 08-43, S. epidermidis 12-12, E. faecium 13-01, E. faecalis 13-01, E. coli 06-05, K. pneumoniae 13-14, Ps. aeruginosa 13-10, A. baumannii 13-02, E. cloacae 13-12, and P. mirabilis 13-01) were facultative anaerobes, of which S. aureus ATCC 29213, E. faecalis ATCC 29212 and E. coli ATCC 25922 were standard strains from ATCC (USA) and served as quality controls. L. casei ATCC 334, L. acidophilus ATCC 4356, B. longum ATCC 15707, and B. breve ATCC 15700 were also tested in this anti-bacterial experiment. Ampicillin was used as the positive control.
For orientation: Broth dilution looks for growth in wells or tubes with falling amounts of substance.

Another series relates to LDLR. Put plainly: Drug effect on hepatic LDLR gene expression in HepG2 cells. It is filed as cell-based, human. The settings on record: 12 h. On the procedure: The HepG2 human hepatoma cell line was obtained from the American Tissue Culture Collection (ATCC, USA) and grown in Eagle’s Minimum Essential Medium (GIBCO) supplemented with 10% fetal bovine serum (GIBCO) at 37 °C. For the drug efficacy test, HepG2 cells were cultured for 24 h and then treated with BBR or dhBBR for 12 h. The compounds were freshly prepared in medium prior to use.
The total cellular RNAs were isolated with the SV Total RNA Isolation System (Promega, Madison, WI, USA) following the vendor’s instructions. The total RNAs were reversely transcribed into cDNAs, and quantitative real-time PCR was performed using a 2-Step RT-qPCR System (Promega, Madison, WI, USA), with GAPDH as an internal control. The normalized LDLR mRNA expression levels were plotted as fold levels compared with the untreated control. The following primers were used: LDLR forward, […]; LDLR reverse, […]; GAPDH forward, […]; and GAPDH reverse, […].

A short description of series [4]: dhBBR-to-BBR reversion in rat small intestine homogenate. Format: in vitro ADME. The settings on record: 10-min incubation. On the procedure: The rat duodenum, jejunum and ileum were collected separately, washed thoroughly with saline and dried. After being weighed, the tissues were homogenized with saline at a ratio of 1: 2 [w (g) /v (ml)]. DhBBR was dissolved in a mixture of methanol and DMSO at a ratio of 1:1 with a final concentration of 5 mg/ml. Ten microliters of dhBBR (5 mg/ml) was mixed with 1 ml of the homogenates. The samples were then centrifuged at 14,000 g for 5 min, and the supernatants were collected and mixed with an equal volume of ice-cold acetonitrile to terminate the reaction. The samples were centrifuged at 14,000 g for 5 min, and the supernatant was used for the HPLC analysis.

Series [5] can be described thus: 72-h cumulative fecal excretion of BBR and dhBBR in pseudo germ-free (PGF) and conventional rats. Format: in vivo, SD rats. The note with it: oral BBR 200 mg/kg. On the procedure:
Male SD rats (180–200 g) were orally treated with cefadroxil (100 mg/kg), terramycin (300 mg/kg) and erythromycin (300 mg/kg) twice a day for 3 days, and pharmacokinetic examination was performed 2 days after final administration. The colon contents of the rats were collected on the first and third days after the final treatment with antibiotics, and the germ-free status was confirmed by culturing fecal samples aerobically on a nutrient agar culture medium. Fecal samples from non-antibiotic-exposed rats served as control samples. Before oral administration of a single dose of BBR (200 mg/kg), the PGF rats were fasted overnight with free access to water. […] The samples were stored at −20 °C for further analysis.

Entries after “also recorded” stand apart in the source; their conditions may differ.

As to `COc1ccc2c(c1OC)CN1CCc3cc4c(cc3C1=C2)OCO4` [dhBBR, dihydroberberine], the “fold Papp (AP-BL) of dhBBR over BBR” value in the series with Caco-2 cells was 11.9 fold. In addition, the efflux ratio at 30 min, 5 μM in series [1] (Caco-2, pH 7.4, read-out: efflux ratio (ER)) came out at 1.58. In series [1] (pH 7.4, Caco-2, 5 μM, 30 min), this compound yielded a Papp A→B at 30 min, 5 μM of 4.51 ×10⁻⁶ cm/s. The area under the curve AUC(0-t) in series [2] (SD, rat, plasma, po, 200 mg/kg, Fig. 3b curve 2, read-out: AUC(0-t) of dhBBR in plasma) was found to be 48.9 ng·h/mL. Further, the peak concentration (Cmax) in series [2] (SD, rat, plasma, po, 200 mg/kg, Fig. 3b curve 2, read-out: Cmax of dhBBR in plasma) worked out at 10.2 ng/mL. The “dhBBR level in plasma” value in series [2] is reported as “less than 10 ng/ml”. In addition, the “organs in which dhBBR was detected” value in series [3] is “detected in intestinal tissue only”. Moreover, the “antibacterial effect compared with BBR” value in the series on 17 intestinal bacteria is “even weaker than that of BBR in 5 of the 17 intestinal bacteria strains”. The “up-regulation of LDLR mRNA expression compared with BBR” value with LDLR is recorded as “Reduced effect; also recorded: much lower than that of BBR”. Also, the dhBBR-to-BBR reversion entry in series [4] (duodenum and jejunum homogenate) was “almost completely”. In addition, in series [4] (ileum homogenate), the dhBBR-to-BBR reversion rate result was “more than 80%”. Moreover, the “72-h-cumulative dhBBR in feces, % of the giving amount of BBR” value came out at 6.09% in series [5] (PGF rats) and 18.21% in series [5] (untreated (conventional) rats).
